# Experiments:
# Type in all cases: biochemical
# PDE1 = experiment: recombinant PDE activity assay with [3H]cAMP, calmodulin and Ca2+
# PDE4D (PDE4) = PDE4D (PDE4) (Homo sapiens, UniProt Q08499); experiment: recombinant PDE activity assay with [3H]cAMP
# PDE3 = experiment: recombinant PDE activity assay with [3H]cAMP
# Chain of PDE4D (PDE4) (Q08499 whole entry): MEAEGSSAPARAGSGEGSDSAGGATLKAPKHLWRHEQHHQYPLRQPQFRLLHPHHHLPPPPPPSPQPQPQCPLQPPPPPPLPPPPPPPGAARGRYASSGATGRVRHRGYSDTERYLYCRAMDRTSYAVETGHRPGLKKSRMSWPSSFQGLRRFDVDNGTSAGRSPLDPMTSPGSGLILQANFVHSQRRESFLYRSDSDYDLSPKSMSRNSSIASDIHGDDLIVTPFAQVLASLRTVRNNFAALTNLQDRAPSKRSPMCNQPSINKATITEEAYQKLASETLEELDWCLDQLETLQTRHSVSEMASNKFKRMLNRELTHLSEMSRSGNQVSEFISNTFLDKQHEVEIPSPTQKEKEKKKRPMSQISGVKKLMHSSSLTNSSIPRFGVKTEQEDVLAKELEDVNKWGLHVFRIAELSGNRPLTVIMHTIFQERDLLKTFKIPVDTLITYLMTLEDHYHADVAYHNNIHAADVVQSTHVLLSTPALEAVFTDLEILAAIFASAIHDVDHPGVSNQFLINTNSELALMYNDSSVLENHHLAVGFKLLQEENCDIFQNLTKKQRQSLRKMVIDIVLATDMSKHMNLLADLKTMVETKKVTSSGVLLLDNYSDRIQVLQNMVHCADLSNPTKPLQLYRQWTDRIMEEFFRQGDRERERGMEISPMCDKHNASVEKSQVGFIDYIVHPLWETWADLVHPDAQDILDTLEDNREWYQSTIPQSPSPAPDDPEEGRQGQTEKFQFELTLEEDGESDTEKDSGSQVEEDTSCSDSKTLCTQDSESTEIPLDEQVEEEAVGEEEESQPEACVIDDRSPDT
structure (smiles),measurement,setting,value
Oc1ccc(/C=C/c2cc(O)cc(O)c2)cc1 [resveratrol],IC50,PDE1,~6 µM
same,IC50,PDE4D (PDE4),~14 µM
same,IC50,PDE3,~10 µM

# Source: PMC3431801 (2012)
